Data taken from patent US6645513B2, “Treatment of skin with adenosine or adenosine analog” (University of Massachusetts, priority 1998, dated 2003).
Several values for one entry are separate records, joined by “and”; a condition that tells them apart may be missing. Equal entries are not always repeated. Marks after values point to notes of the source that are not given here.

Experiments:
Assay type in all cases: cell-based
human skin fibroblasts [1] = test: Determination of cell size by forward light scatter (FACS); details: for % increase (cell size) / Relative Size (FLS): adenosine 10^-4 M, 18 h; for increase of cell size: 10^-4 M
Protocol: Human fibroblasts in MEM 10% FBS were seeded into 25 cm^2 culture flasks at a density of 1×10^4 cells/cm^2. When the cells had grown to approximately 80% confluence the culture medium was removed and the cells were incubated in serum-free MEM for 24 hours. Adenosine or vehicle (MEM) was added for 18 hours and cells were then washed twice with cold (4° C.) HBSS. Cells were removed with 0.25% trypsin in calcium-and magnesium-free MEM and diluted in cold (4° C.) HBSS for measurement of relative cell size with a fluorescence-activated cell sorter (FACS; Becton Dickinson Vantage). Cell size was determined by forward light scatter on a minimum of 1×10^4 cells per experiment. The effect of adenosine on cell size was determined on human skin fibroblasts from young and aged donors by measuring forward light scatter in a FACS analyzer. Cultures made quiescent by serum removal were exposed to adenosine for 18 hours, removed by trypsinization, and diluted in 4° C. HBSS. A minimum of 1×10^4 cells were measured for each experiment. Values are mean ±SEM for relative cell size determined by forward light scatter (FLS) in a fluorescence-activated cell sorter, and n=number of cells measured.

[2] = test system: human lung fibroblasts (IMR-90); test: [3H]thymidine incorporation in human lung fibroblasts (IMR-90); details: IMR-90 lung fibroblasts
Protocol: FIGS. 1A and 1B are histograms showing the effect of adenosine on [^3H]thymidine incorporation in cultures of normal human skin (FIG. 1A) and lung fibroblasts (FIG. 1B). After incubation in serum-free medium for 24 hours, cells were exposed to 10^−4 M adenosine for 18 hours. Medium was replaced with serum-free medium without adenosine, and [^3H]thymidine was added. Results are expressed as percent [^3H]thymidine incorporation compared to control cultures without adenosine and are means ±SEM for 4-5 experiments.
(§1) Human skin fibroblasts and human lung fibroblasts were supplied by the N.I.A. Aging Culture Repository Center (Camden, N.J.). For skin fibroblasts, primary cultures had been initiated from explants obtained from a 3 mm punch biopsy of the mesial aspect of the upper left arm. Human lung fibroblasts (IMR-90) were established from a […] normal […] fetus.
Cells were grown in Eagle's minimal essential medium (MEM) supplemented with 10% fetal bovine serum (FBS), 100 U/ml penicillin and […] streptomycin in a 37° C., 5% CO2/95% air environment. […]
As an index of DNA synthesis incorporation of [^3H]thymidine was measured as described in Ethier et al., Am. […] The radioactivity of this fraction was determined by standard liquid scintillation spectrometric techniques.
Incorporation of [^3H] thymidine was expressed as counts per minute (cpm) of ^3H per culture. […]

human skin fibroblasts [3] = test: [3H]phenylalanine incorporation (index of protein synthesis) in human skin fibroblasts; details: 10^-4 M, 48 h
Protocol: FIGS. 2A and 2B are histograms showing concentration responses of adenosine-stimulated protein synthesis in human skin fibroblasts from a young (FIG. 2A) and aged (FIG. 2B) donor. Cells were grown to 75% confluence. Medium was then replaced with serum-free medium with or without adenosine. After 48 hours, [^3H]phenylalanine incorporation was determined as described. Results are expressed as %[^3H]phenylalanine incorporation compared to control cultures without adenosine and are means ±SEM for 6-25 experiments. […] Incorporation of [^3H]phenylalanine was measured as an index of protein synthesis. Human skin fibroblasts were seeded into 24-well culture plates in MEM containing 10% FBS. When cells had grown to approximately 75% confluence the culture medium was replaced with serum-free MEM with or without adenosine. After 48 hours, 2 μCi/ml [^3H]phenylalanine was added to the cultures. Unlabeled phenylalanine (0.36 mM) was also added to equalize concentrations of intracellular and extracellular phenylalanine. […] The radioactivity of this fraction was determined by standard liquid scintillation spectrometric techniques. Incorporation of [^3H] phenylalanine was expressed as cpm of ^3H per culture well and data in each experiment were derived from six identically treated wells.

human skin fibroblasts [4] = test: [3H]thymidine incorporation (index of DNA synthesis) in human skin fibroblasts
Protocol: as §1
Cells were grown in Eagle's minimal essential medium (MEM) supplemented with 10% fetal bovine serum (FBS), 100 U/ml penicillin and […] streptomycin in a 37° C., 5% CO2/95% air environment. After reaching confluence, cells were subcultivated with 0.25% trypsin in MEM with no added Ca^2+ or Mg^2+.
As an index of DNA synthesis incorporation of [^3H]thymidine was measured as described in Ethier et al., Am. J. Physiol. 272:H1470-79 (1997). Confluent monolayers of human skin fibroblasts in MEM plus 10% FBS were seeded into 16 mm diameter culture wells (24-well plates) at a density of 1×10^4 cells/cm^2. Cells were grown at 37° C. under standard culture conditions (5% CO2-95% air) until they were approximately 75% confluent. Medium was then removed and the cells were made “serum-free” by incubation in MEM with no FBS for 24 hours. Adenosine or vehicle (MEM) was added for an additional 18 hours. This medium was then replaced with fresh MEM, and the cells were pulsed with […] [^3H] thymidine (6.7 Ci/mmol). After a 2 hour incubation period, the medium was discarded and the cells were rinsed twice with cold (4° C.) Hank's balanced salt solution (HBSS) and incubated for 5 minutes with 0.5 ml cold 10% (w/v) trichloroacetic acid (TCA). The wells were then rinsed with 8% TCA and the TCA-insoluble material was solubilized with 0.5 ml of a solution of 0.2M NaOH and 0.2% sodium […] sulfate (SDS). The radioactivity of this fraction was determined by standard liquid scintillation spectrometric techniques.
Incorporation of [^3H] thymidine was expressed as counts per minute (cpm) of ^3H per culture. Data in each experiment was derived from 4 identically treated wells.

## Nc1ncnc2c1ncn2[C@@H]1O[C@H](CO)[C@@H](O)[C@H]1O [adenosine]
Human skin fibroblasts [1]; aged donor, experiment 1
  % increase (cell size): 2.7* %
  Relative Size (FLS): 342 ± 0.75
Human skin fibroblasts [1]; aged donor, experiment 2
  % increase (cell size): 4.3* %
  Relative Size (FLS): 337 ± 0.96
Human skin fibroblasts [1]; aged donor, experiment 3
  % increase (cell size): 4.9* %
  Relative Size (FLS): 321 ± 0.81
Human skin fibroblasts [1]; skin fibroblasts from person (AG073060A), two of three experiments
  increase of cell size: 1.8% and 2.2%
Human skin fibroblasts [1]; skin fibroblasts from person three (AG11730), 3 of 3 experiments
  increase of cell size: 2.7-4.9%
Human skin fibroblasts [1]; young donor, experiment 1
  % increase (cell size): 0.4%
  Relative Size (FLS): 526 ± 0.55
Human skin fibroblasts [1]; young donor, experiment 2
  % increase (cell size): 2.2* %
  Relative Size (FLS): 326 ± 1.16
Human skin fibroblasts [1]; young donor, experiment 3
  % increase (cell size): 1.8* %
  Relative Size (FLS): 348 ± 0.95
[2]; adenosine 10^-4 M (FIG. 1B)
  effect on [3H]thymidine incorporation: no effect
[2]; adenosine 10^-7 M to 10^-3 M (data not shown)
  stimulation of [3H]thymidine incorporation: failed to stimulate
Human skin fibroblasts [3]; skin fibroblasts from person (AG073060A), n=25
  increase of protein synthesis ([3H]phenylalanine incorporation): 13±4%
Human skin fibroblasts [3]; skin fibroblasts from person three (AG11730), n=17
  increase of protein synthesis ([3H]phenylalanine incorporation): 13±6%
Human skin fibroblasts [4]; human fibroblasts AG607720B made quiescent by serum removal, 10^-4 M adenosine, five studies (FIG. 1A)
  increase of [3H]thymidine incorporation: 43±9%
Human skin fibroblasts [4]; skin fibroblasts from person (AG07306A), 10^-4 M, n=6
  peak stimulation of [3H]thymidine incorporation: 93±20%
Human skin fibroblasts [4]; skin fibroblasts from person one, 10^-4 M
  increase of [3H]thymidine incorporation: 53±31%
Human skin fibroblasts [4]; skin fibroblasts from person three, 10^-4 M
  increase of [3H]thymidine incorporation: 54±22%
Human skin fibroblasts [4]; skin fibroblasts from person two, 10^-4 M
  effect on DNA synthesis ([3H]thymidine incorporation): no effect
